{"source": "patent EP0516660B1", "about": "“USE OF S-ADENOSYL METHIONINE AS AN AGENT AGAINST VIRAL INFECTIONS BY RETROVIRUSES” (Grundmann, Ewald, Dr., priority 1990, dated 1991)", "test_system": "HIV", "test": "HIV-infected lymphocyte cultures, virus amount determined as radioactive reverse transcriptase in the culture supernatant", "type": "cell-based", "details": "for Reverse Transkriptase: HIV-Zahl in Lymphocyten-Kultur", "experimental": "Lymphocyten-Kulturen aus der Nabelschnur von Neugeborenen (H. Rübsamen-Waigmann et al. \"Isolation of Variants of Lymphocytopathic Retroviruses from the Peripheral Blood and Cerebrospinal Fluid of Patients with ABC or AIDS\", J. Medical Virology 19, S. 335 bis 344; 1986) wurden mit Viren, die dem Blut von AIDS-Kranken entnommen waren, geimpft. Dazu werden zu 5 ml der Lymphocyten-Kultur (1 · 10⁶ Zellen pro ml) 0,5 ml einer HIV-Suspension gegeben, die 10⁴ bis 10⁵ infektiöse Partikel pro ml enthält. Die Kulturmedien werden mit unterschiedlichen Mengen S-Adenosyl-L-methionintosylat-bis-Sulfat versetzt. Ein Drittel bis zur Hälfte des jeweiligen Kulturmediums werden nach 1 bis 2 Tagen durch frisches Kulturmedium gleicher Zusammensetzung ersetzt.\nRetroviren zeichnen sich dadurch aus, daß sie ausschließlich RNA (Ribonukleinsäure) als Nukleinsäure enthalten und eine spezielle Polymerase, nämlich Reverse Transkriptase benötigen, die nach der Infektion in der Wirtszelle aus der Virus-RNA eine in die DNA der Wirtszelle einbaubare Virus-DNA bildet, vgl. H. Rübsamen \"Biochemie der Tumorviren\", Chemie in unserer Zeit 17, S. 169 bis 180; 1983. Daraus ergibt sich eine Nachweismethode für Retroviren, die auf der für diese typischen Reversen Transkriptase und dem durch diese in die DNA eingebauten Tritium-markierten Thymidin beruht, vgl. H. Rübsamen et al., l.c.:\nIn Abhängigkeit vom positiven Nachweis der Infektion durch mikroskopische Kontrolle werden nach 3 bis 5 Tagen jeweils 5 ml der überstehenden Kulturflüssigkeit durch Zentrifugieren (1o min bei 10.000 g) geklärt. Die so geklärte Probe wird bei 100.000 g/50 min zentrifugiert und der Rückstand in 60 µl eines Tris-Puffers lysiert (10 mM Tris, 0,2 % Triton X-100, 1 mM EDTA, 5 mM Dithiothreitol, 60 mM KCl, pH 7,3).\nJeweils 30 µl des Lysats werden mit 30 µl Templat (0,01 mg/ml Poly(rA)·oligo (dT) (Pharmacia, Uppsala, Schweden) in 5 mM MgCl₂, 2,4 mM Dithiothreitol, 60 mM KCl und 0,0034 mM Methyl-[³H]thymidin-5'-Triphosphat; 48 Ci/mM, Amersham, Bucks; England) 90 min bei 37° C inkubiert. Die Reaktion wird durch Zugabe von 10-proz. Laurylsarkosin bis zu einer Laurylsarkosin-Endkonzentration von 1,4 % beendet. Die freie und in das RNA/DNA-Hybrid eingebaute Radioaktivität von 10 µl des mit Laurylsarkosin versetzten Inkubats werden dann in üblicher Weise an einem DEAE-Filter getrennt, das nach dem Waschen und Trocknen in eine Szintillationsflüssigkeit gegeben wird. Die Radioaktivität wird dann mit einem Szintillationszähler gemessen. Die eingebaute Radioaktivität (Zerfälle pro min pro 5 ml) nach Abzug des Blindwertes ist dann ein Maß für die in der überstehenden Kulturflüssigkeit enthaltene Reverse Transkriptase und damit für die Menge an Retroviren, die in der Kultur enthalten sind.", "data": [{"smiles": "C[S+](CC[C@H](N)C(=O)O)C[C@H]1O[C@@H](n2cnc3c(N)ncnc32)[C@H](O)[C@@H]1O", "note": "(stereo partly drawn) [Adenosylmethionin, S-Adenosyl-L-methionintosylat-bis-Sulfat]", "values": [{"measurement": "Reverse Transkriptase", "setting": "Adenosylmethionin 4 µg/ml", "value": "114 000 counts/min und 5 ml"}, {"measurement": "Reverse Transkriptase", "setting": "Adenosylmethionin 40 µg/ml", "value": "86 000 counts/min und 5 ml"}, {"measurement": "Reverse Transkriptase", "setting": "Adenosylmethionin 200 µg/ml", "value": "73 000 counts/min und 5 ml"}, {"measurement": "Reverse Transkriptase", "setting": "Adenosylmethionin 400 µg/ml", "value": "60 000 counts/min und 5 ml"}, {"measurement": "Reverse Transkriptase", "setting": "Adenosylmethionin 1000 µg/ml", "value": "29 000 counts/min und 5 ml"}, {"measurement": "IC50", "setting": "Human immunodeficiency virus 1, Lymphocyte, read-out: Halbwertskonzentration, bei der die Retrovirenkonzentration auf die Hälfte zurückgeht", "value": "100 to 200", "unit": "µg/mL"}]}]}
